# Test results as given in patent US11045448B2, “Piperidines as covalent menin inhibitors” (THE REGENTS OF THE UNIVERSITY OF MICHIGAN, priority 2017, dated 2021).
# pIC50: −log10 of the molar value.
# How the values were obtained:
# [1] = test system: MV4-11; assay: 7-day proliferation assay (WST-8), MV4-11; format: cell-based; details: Homo sapiens, 168 h; Table 5; MV4-11; 7 days; read-out: IC50 in cell growth inhibition
# Experimental: (§1) The effect of representative Compounds of the Disclosure on cell viability was determined in a 7-day proliferation assay. Cells were maintained in the appropriate culture medium with 10% FBS at 37° C. and an atmosphere of 5% CO2.
# (§2) Cells were seeded in 96-well flat bottom (Corning COSTAR, Corning, N.Y., cat #3595) at a density of 2,000-3,000 cells/well in 100 μl of culture medium. Compounds were serially diluted in the appropriate medium, and 100 μl of the diluted compounds were added to the appropriate wells of the cell plate. After the addition of compounds, the cells were incubated at 37° C. in an atmosphere of 5% CO2 for 7 days. Cell viability was determined using the WST (2-(2-methoxy-4-nitrophenyl)-3-(4-nitrophenyl)-5-(2,4-disulfophenyl)-2H-tetrazolium, monosodium salt) Cell Counting-8 Kit (Dojindo Molecular Technologies, Inc., Rockville, Md.) according to the manufacturers' instructions.
# (§3) WST-8 reagent was added to each well at a final concentration of 10% (v/v), and then the plates were incubated at 37° C. for 1-2 hours for color development. The absorbance was measured at 450 nm using a SPECTRAmax PLUS plate reader (Molecular Devices, Sunnyvale, Calif.). The readings were normalized to the DMSO-treated cells and the half maximal inhibitory concentration (IC50) was calculated by nonlinear regression (four parameters sigmoid fitted with variable slope, least squares fit, and no constraint) analysis using the GraphPad Prism 5 software (GraphPad Software, La Jolla, Calif.).
# [2] = test system: MOLM13; assay: 7-day proliferation assay (WST-8), MOLM13; format: cell-based; details: Homo sapiens, MOLM-13, 168 h; Table 5; MOLM13; 7 days; read-out: IC50 in cell growth inhibition
# Experimental: as §1, §2, §3
# [3] = molecular target: menin protein (Homo sapiens (Human), UniProt O00255); assay: Fluorescence polarization (FP) competitive binding assay, menin binding affinity; details: menin protein 4 nM, probe 2 nM, room temperature 30 minutes
# Experimental: A fluorescence polarization (FP) competitive binding assay was used to determine the binding affinities of representative menin inhibitors. A FAM labeled fluorescent probe was designed and synthesized based on a MLL1 peptide (FAM-MM2). Equilibrium dissociation constant (Kd) value of FAM-MM2 to menin protein was determined from protein saturation experiments by monitoring the total fluorescence polarization of mixtures composed with the fluorescent probe at a fixed concentration and the protein with increasing concentrations up to full saturation. Serial dilutions of the protein were mixed with FAM-MM2 to a final volume of 200 μl in the assay buffer (PBS with 0.02% Bovine γ-Globulin and 4% DMSO. 0.01% Triton X-100 was added right before assays). Final FAM-MM2 concentration was 2 nM. Plates were incubated at room temperature for 30 minutes with gentle shaking to assure equilibrium. FP values in millipolarization units (mP) were measured using the Infinite M-1000 plate reader (Tecan U.S., Research Triangle Park, N.C.) in Microfluor 1 96-well, black, v-bottom plates (Thermo Scientific, Waltham, Mass.) at an excitation wavelength of 485 nm and an emission wavelength of 530 nm.
# The IC50, see Table 3, of representative Compounds of the Disclosure were determined in a competitive binding experiment. Mixtures of 5 μl of the tested compounds in DMSO and 195 μl of preincubated protein/probe complex solution in the assay buffer were added into assay plates which were incubated at room temperature for 30 minutes with gentle shaking. Final concentration of the menin protein was 4 nM, and final probe concentration is 2 nM. Negative controls containing protein/probe complex only (equivalent to 0% inhibition), and positive controls containing only free probes (equivalent to 100% inhibition), were included in each assay plate. FP values were measured as described above. IC50 values were determined by nonlinear regression fitting of the competition curves.
# Chain of menin protein (O00255 whole entry): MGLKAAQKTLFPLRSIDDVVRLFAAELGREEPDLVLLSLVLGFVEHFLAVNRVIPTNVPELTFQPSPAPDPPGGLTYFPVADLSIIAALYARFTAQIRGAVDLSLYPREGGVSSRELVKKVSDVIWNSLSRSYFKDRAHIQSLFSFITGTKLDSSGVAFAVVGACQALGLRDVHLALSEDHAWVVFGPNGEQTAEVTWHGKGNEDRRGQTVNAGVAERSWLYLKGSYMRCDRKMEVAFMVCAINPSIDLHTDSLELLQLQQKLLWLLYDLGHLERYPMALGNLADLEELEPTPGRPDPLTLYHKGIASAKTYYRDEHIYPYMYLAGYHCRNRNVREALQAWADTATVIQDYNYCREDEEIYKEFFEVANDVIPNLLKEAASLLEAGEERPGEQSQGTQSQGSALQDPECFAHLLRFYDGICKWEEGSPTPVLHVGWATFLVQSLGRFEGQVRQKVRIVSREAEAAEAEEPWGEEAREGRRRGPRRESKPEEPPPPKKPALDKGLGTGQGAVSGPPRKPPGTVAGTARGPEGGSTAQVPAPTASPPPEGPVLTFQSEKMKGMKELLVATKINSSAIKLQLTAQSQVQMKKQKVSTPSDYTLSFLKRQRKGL
Compound,pIC50 [1],pIC50 [2],pIC50 [3]
"COC(=O)N[C@H]1CCC[C@@H]1[C@@](C#N)(c1cccc(F)c1)C1CCN(CC2CN(c3ccc(S(=O)(=O)C4CN(C(=O)/C=C/CN(C)C)C4)cc3)C2)CC1 [Cpd. No. 60, methyl ((1S,2R)-2-((R)-cyano(1-((1-(4-((1-((E)-4-(dimethylamino)but-2-enoyl)azetidin-3-yl)sulfonyl)phenyl)azetidin-3-yl)methyl)piperidin-4-yl)(3-fluorophenyl)methyl)cyclopentyl)carbamate]",6.28,5.85,< 5.70
"C=CC(=O)N1CC(S(=O)(=O)c2ccc(OCCOc3ccc([C@@](C#N)(c4cccc(F)c4)[C@H]4CCC[C@@H]4NC(=O)OC)cc3)cc2)C1 [Cpd. No. 64, methyl ((1S,2R)-2-((R)-(4-(2-(4-((1-acryloylazetidin-3-yl)sulfonyl)phenoxy)ethoxy)phenyl)(cyano)(3-fluorophenyl)methyl)cyclopentyl)carbamate]",,,< 5.00
"C=CC(=O)N1CC(S(=O)(=O)c2ccc(OCCOc3ccc([C@](C#N)(c4cccc(F)c4)[C@H]4CCC[C@@H]4NC(=O)OC)cc3)cc2)C1 [Cpd. No. 65, methyl ((1S,2R)-2-((S)-(4-(2-(4-((1-acryloylazetidin-3-yl)sulfonyl)phenoxy)ethoxy)phenyl)(cyano)(3-fluorophenyl)methyl)cyclopentyl)carbamate]",,,< 5.00
"CCc1nccn1C[C@@](c1cccc(F)c1)(C1CCN(CC2(F)CN(c3ccc(S(=O)(=O)C4CN(C(=O)/C=C/CN(C)C)C4)cc3)C2)CC1)[C@H]1CCC[C@@H]1NC(=O)OC [Cpd. No. 66, methyl ((1S,2R)-2-((S)-1-(1-((1-(4-((1-((E)-4-(dimethylamino)but-2-enoyl)azetidin-3-yl)sulfonyl)phenyl)-3-fluoroazetidin-3-yl)methyl)piperidin-4-yl)-2-(2-ethyl-1H-imidazol-1-yl)-1-(3-fluorophenyl)ethyl)cyclopentyl)carbamate]",,,9.00
"CCc1nccn1C[C@@](c1cccc(F)c1)(C1CCN(CC2CN(c3ccc(S(=O)(=O)C4CN(C(=O)/C=C/CN(C)C)C4)cc3)C2)CC1)[C@H]1CCC[C@@H]1NC(=O)OC [Cpd. No. 67, methyl ((1S,2R)-2-((S)-1-(1-((1-(4-((1-((E)-4-(dimethylamino)but-2-enoyl)azetidin-3-yl)sulfonyl)phenyl)azetidin-3-yl)methyl)piperidin-4-yl)-2-(2-ethyl-1H-imidazol-1-yl)-1-(3-fluorophenyl)ethyl)cyclopentyl)carbamate]",8.22,7.51,8.70
"COC(=O)N[C@H]1CCC[C@@H]1[C@](C#N)(c1cccc(F)c1)C1CCN(CCCOc2ccc(S(=O)(=O)C3CN(C(=O)/C=C/CN(C)C)C3)cc2)CC1 [Cpd. No. 68, methyl ((1S,2R)-2-((S)-cyano(1-(3-(4-((1-((E)-4-(dimethylamino)but-2-enoyl)azetidin-3-yl)sulfonyl)phenoxy)propyl)piperidin-4-yl)(3-fluorophenyl)methyl)cyclopentyl)carbamate]",,,8.15
"COC(=O)N[C@H]1CCC[C@@H]1[C@](C#N)(c1cccc(F)c1)C1CCN(CC2(F)CN(c3ccc(S(=O)(=O)C4CN(C(=O)/C=C/CN(C)C)C4)cc3)C2)CC1 [Cpd. No. 69, methyl ((1S,2R)-2-((S)-cyano(1-((1-(4-((1-((E)-4-(dimethylamino)but-2-enoyl)azetidin-3-yl)sulfonyl)phenyl)-3-fluoroazetidin-3-yl)methyl)piperidin-4-yl)(3-fluorophenyl)methyl)cyclopentyl)carbamate]",,,8.05
"C=CC(=O)Nc1cccc(S(=O)(=O)c2ccc(N3CC(CN4CCC([C@](C#N)(c5cccc(F)c5)[C@H]5CCC[C@@H]5NC(=O)OC)CC4)C3)cc2)c1 [Cpd. No. 70, methyl ((1S,2R)-2-((R)-(1-((1-(4-((3-acrylamidophenyl)sulfonyl)phenyl)azetidin-3-yl)methyl)piperidin-4-yl)(cyano)(3-fluorophenyl)methyl)cyclopentyl)carbamate]",,,< 5.00
"COC(=O)N[C@H]1CCC[C@@H]1[C@](C#N)(c1cccc(F)c1)C1CCN(CC2CN(c3ccc(S(=O)(=O)C4CN(C(=O)/C=C/CN5CCCCC5)C4)cc3)C2)CC1 [Cpd. No. 71, methyl ((1S,2R)-2-((S)-cyano(3-fluorophenyl)(1-((1-(4-((1-((E)-4-(piperidin-1-yl)but-2-enoyl)azetidin-3-yl)sulfonyl)phenyl)azetidin-3-yl)methyl)piperidin-4-yl)methyl)cyclopentyl)carbamate]",,,8.40
"COC(=O)N[C@H]1CCC[C@@H]1[C@](Cn1ccnn1)(c1cccc(F)c1)C1CCN(CC2CN(c3ccc(S(=O)(=O)C4CN(C(=O)/C=C/CN(C)C)C4)cc3)C2)CC1 [Cpd. No. 72, methyl ((1S,2R)-2-((S)-1-(1-((1-(4-((1-((E)-4-(dimethylamino)but-2-enoyl)azetidin-3-yl)sulfonyl)phenyl)azetidin-3-yl)methyl)piperidin-4-yl)-1-(3-fluorophenyl)-2-(1H-1,2,3-triazol-1-yl)ethyl)cyclopentyl)carbamate]",9.00,7.66,8.70
"CCc1nccn1C[C@@](c1cccc(F)c1)(C1CCN(CC2CN(c3ccc(S(=O)(=O)C4CN(C(=O)/C=C/CN5CCCCC5)C4)cc3)C2)CC1)[C@H]1CCC[C@@H]1NC(=O)OC [Cpd. No. 73, methyl ((1S,2R)-2-((S)-2-(2-ethyl-1H-imidazol-1-yl)-1-(3-fluorophenyl)-1-(1-((1-(4-((1-((E)-4-(piperidin-1-yl)but-2-enoyl)azetidin-3-yl)sulfonyl)phenyl)azetidin-3-yl)methyl)piperidin-4-yl)ethyl)cyclopentyl)carbamate]",10.00,8.22,8.70
"COC(=O)N[C@H]1CCC[C@@H]1[C@](C#N)(c1cccc(F)c1)C1C[C@@H](C)N(CC2CN(c3ccc(S(=O)(=O)C4CN(C(=O)/C=C/CN(C)C)C4)cc3)C2)[C@@H](C)C1 (stereo partly drawn) [Cpd. No. 75, methyl ((1S,2R)-2-((1S)-cyano((2R,6S)-1-((1-(4-((1-((E)-4-(dimethylamino)but-2-enoyl)azetidin-3-yl)sulfonyl)phenyl)azetidin-3-yl)methyl)-2,6-dimethylpiperidin-4-yl)(3-fluorophenyl)methyl)cyclopentyl)carbamate]",,,8.22
"C=CS(=O)(=O)N[C@H]1CCC[C@@H]1[C@](C#N)(c1cccc(F)c1)C1CCN(CC2CN(c3ccc(C#N)cc3)C2)CC1 [Cpd. No. 79, N-((1S,2R)-2-((S)-cyano(1-((1-(4-cyanophenyl)azetidin-3-yl)methyl)piperidin-4-yl)(3-fluorophenyl)methyl)cyclopentyl)ethenesulfonamide]",,,5.97
"C=CC(=O)N[C@H]1CCC[C@@H]1[C@](C#N)(c1cccc(F)c1)C1CCN(CC2CN(c3ccc(C#N)cc3)C2)CC1 [Cpd. No. 80, N-((1S,2R)-2-((S)-cyano(1-((1-(4-cyanophenyl)azetidin-3-yl)methyl)piperidin-4-yl)(3-fluorophenyl)methyl)cyclopentyl)acrylamide]",,,8.15
"N#Cc1ccc(N2CC(CN3CCC([C@@](C#N)(c4cccc(F)c4)[C@H]4CCC[C@@H]4NC(=O)CCl)CC3)C2)cc1 [compound 81, 2-chloro-N-((1S,2R)-2-((S)-cyano(1-((1-(4-cyanophenyl)azetidin-3-yl)methyl)piperidin-4-yl)(3-fluorophenyl)methyl)cyclopentyl)acetamide]",,,8.05
"C#CC(=O)N[C@H]1CCC[C@@H]1[C@](C#N)(c1cccc(F)c1)C1CCN(CC2CN(c3ccc(C#N)cc3)C2)CC1 [compound 82, N-((1S,2R)-2-((S)-cyano(1-((1-(4-cyanophenyl)azetidin-3-yl)methyl)piperidin-4-yl)(3-fluorophenyl)methyl)cyclopentyl)propiolamide]",,,8.40
